Data reported in PMC6544120, “Stimuli-responsive membrane activity of cyclic-peptide–polymer conjugates” (Chemical Science, 2019).

Experiment: Calcein dye leakage assay
Format: biochemical
Settings: pure DTT 30 mM without CPNT
Procedure: This was tested by studying the interaction of our CPNT with synthetic liposomes. A mixture of phosphatidylethanolamine and phosphatidylglycerol was used to simulate the cytosolic membrane of E. coli.[35] Vesicles were loaded with self-quenching concentrations of a fluorescent dye (calcein). This allows to detect disruption of the bilayer, as dye release from the liposomes and the resulting dilution leads to an increase in fluorescence (Scheme S4 ^†).
The fit (Figure S25) was performed with R, Rg, N agg, l and N as adjustable parameter.
Table S2. Fitting parameters for 24 using a form factor of a micelle with a spherical core […]
Rg, corona b 16.6 Å parameters
Vcore (single unit) c 300 Å3 […]
Background subtracted 5 × 10 -2 cm-1 a The radius of the core was calculated from the volume of the whole core given by the volume of the core of a single unit multiplied with the number of aggregation (N agg); b Radius of gyration (R g) of a single chain in the corona; c The Volume of a single cyclic peptide in the core or polymer corona (PEtOx) was estimated from the Mn, divided by the Avogadro constant and assuming a density of 1 g/cm 3, d The scattering lengths density (SLD) of the materials was calculated using the calculator given in SASfit; […]
Formation of vesicles. […]

With `O[C@@H](CS)[C@@H](O)CS` (racemic) [DTT, 1,4-dithiothreitol] the “Effect of DTT alone on fluorescence intensity (calcein release)” value was “no effect on the fluorescence intensity”.
